Tests used:
[1] = Cytotoxicity against human MDA-MB-231 cells assessed as effect on cell viability measured after 48 hrs by MTT assay; format: functional, cell-based; details: MDA-MB-231, 48 h
[2] = Cytotoxicity against human HCT116 cells assessed as effect on cell viability measured after 48 hrs by MTT assay; format: functional, cell-based; details: HCT-116, 48 h
[3] = Cytotoxicity against human Jurkat cells assessed as cell survival at 10 uM measured after 48 hrs by MTT assay relative to control; format: functional; details: read-out: Survival
[4] = Cytotoxicity against human MDA-MB-231 cells assessed as cell survival at 10 uM measured after 48 hrs by MTT assay relative to control; format: functional; details: MDA-MB-231, 48 h, read-out: Survival
[5] = Cytotoxicity against human HCT116 cells assessed as cell survival at 10 uM measured after 48 hrs by MTT assay relative to control; format: functional; details: HCT-116, 48 h, read-out: Survival
[6] = test system: Rattus norvegicus; test: Antiinflammatory activity in rat assessed as inhibition of carrageenan-induced hind paw edema at 50 mg/Kg, po administered 30 mins before carrageenan challenge measured after 1 hr relative to control; format: functional
[7] = test system: Rattus norvegicus; test: Antiinflammatory activity in rat assessed as inhibition of carrageenan-induced hind paw oedema at 50 mg/Kg, po administered 30 mins before carrageenan challenge measured after 4 hrs relative to control; format: functional
[8] = test system: Rattus norvegicus; test: Antiinflammatory activity in rat assessed as inhibition of carrageenan-induced hind paw oedema at 50 mg/Kg, po administered 30 mins before carrageenan challenge measured after 2 hrs relative to control; format: functional
[9] = test system: Rattus norvegicus; test: Antiinflammatory activity in rat assessed as inhibition of carrageenan-induced hind paw oedema at 50 mg/Kg, po administered 30 mins before carrageenan challenge measured after 3 hrs relative to control; format: functional
[10] = test system: Jurkat; test: Induction of apoptosis in human Jurkat cells assessed as activation of caspase 3/7 at 1 uM measured after 48 hrs by fluorescence assay relative to control; format: functional
[11] = Cytotoxicity against human Jurkat cells assessed as effect on cell viability measured after 48 hrs by MTT assay; format: functional, cell-based

For COc1cccc2c1C(=O)c1c(O)c3c(c(O)c1C2=O)C[C@@](O)(C(=O)CO)C[C@@H]3O[C@H]1C[C@H](N)[C@H](O)[C@H](C)O1 [DOXORUBICIN], the IC50 [1] was 450 nM, the IC50 [2] was 330 nM and the viability at 10 µM [3] was 18.7%. The viability at 10 µM [4] was 22.1% and the viability at 10 µM [5] was 23.1%.
With O=C(NCCc1c[nH]c2ccccc12)c1csc(Nc2ccc(Cl)cc2)n1 the inhibition in vivo at 50 mg/kg [6] was 49%, the inhibition in vivo at 50 mg/kg [7] was 41% and the inhibition in vivo at 50 mg/kg [8] was 59%. For the same molecule, the inhibition in vivo at 50 mg/kg [9] was 50%.
In the case of O=C(NCCc1c[nH]c2ccccc12)c1csc(Nc2ccc(F)cc2)n1, the inhibition in vivo at 50 mg/kg [6] is reported as 83%, the inhibition in vivo at 50 mg/kg [7] is reported as 42% and the inhibition in vivo at 50 mg/kg [8] is reported as 60%. For the same molecule, the inhibition in vivo at 50 mg/kg [9] was 59%.
In the case of COc1ccc2c(c1)c(CC(=O)O)c(C)n2C(=O)c1ccc(Cl)cc1 [INDOMETHACIN], the inhibition in vivo at 50 mg/kg [6] is reported as 94%, the inhibition in vivo at 50 mg/kg [7] is reported as 86% and the inhibition in vivo at 50 mg/kg [8] is reported as 84%. The inhibition in vivo at 50 mg/kg [9] was 81%.
With O=C(NCCc1c[nH]c2ccccc12)c1csc(Cc2ccccc2)n1 the inhibition in vivo at 50 mg/kg [6] was 76%, the viability at 10 µM [3] was 87.3% and the inhibition in vivo at 50 mg/kg [7] was 42%. It also gave a viability at 10 µM [4] of 89%, an inhibition in vivo at 50 mg/kg [8] of 57% and a viability at 10 µM [5] of 101%. The inhibition in vivo at 50 mg/kg [9] was 45%.
In the case of O=C(NCCc1c[nH]c2ccccc12)c1csc(-c2ccc(Cl)cc2)n1, the inhibition in vivo at 50 mg/kg [6] is reported as 68%, the viability at 10 µM [3] is reported as 84.8% and the inhibition in vivo at 50 mg/kg [7] is reported as 56%. For the same molecule, the viability at 10 µM [4] was 94.8%, the inhibition in vivo at 50 mg/kg [8] was 63% and the viability at 10 µM [5] was 99.2%. It also gave an inhibition in vivo at 50 mg/kg [9] of 62%.
Cc1ccc(Nc2nc(C(=O)NCCc3c[nH]c4ccccc34)cs2)cc1 showed an inhibition in vivo at 50 mg/kg [6] of 52%, an inhibition in vivo at 50 mg/kg [7] of 38% and an inhibition in vivo at 50 mg/kg [8] of 57%. For the same molecule, the inhibition in vivo at 50 mg/kg [9] was 46%.
With O=C(NCCc1c[nH]c2ccccc12)c1csc(-c2ccco2)n1 the inhibition in vivo at 50 mg/kg [6] was 75%, the viability at 10 µM [3] was 87.2% and the inhibition in vivo at 50 mg/kg [7] was 46%. It also gave a viability at 10 µM [4] of 84.4%, an inhibition in vivo at 50 mg/kg [8] of 69% and a viability at 10 µM [5] of 96.9%. It also gave an inhibition in vivo at 50 mg/kg [9] of 49%.
Cc1nc(C(=O)NCCc2c[nH]c3ccccc23)cs1 gave an inhibition in vivo at 50 mg/kg [6] of 63%, a viability at 10 µM [3] of 88.1% and an inhibition in vivo at 50 mg/kg [7] of 50%. It also gave a viability at 10 µM [4] of 90.4%, an inhibition in vivo at 50 mg/kg [8] of 60% and a viability at 10 µM [5] of 97%. For the same molecule, the inhibition in vivo at 50 mg/kg [9] was 44%.
Molecule O=C(NCCc1c[nH]c2ccccc12)c1csc(Nc2ccc([N+](=O)[O-])cc2)n1 has an inhibition in vivo at 50 mg/kg [6] of 66%, a viability at 10 µM [3] of 92.5% and an inhibition in vivo at 50 mg/kg [7] of 50%. It also gave a viability at 10 µM [4] of 92.3%, an inhibition in vivo at 50 mg/kg [8] of 59% and a viability at 10 µM [5] of 72.1%. It also gave an inhibition in vivo at 50 mg/kg [9] of 57%.
In the case of O=C(NCCc1c[nH]c2ccccc12)c1csc(Nc2ccc(Br)cc2)n1, the inhibition in vivo at 50 mg/kg [6] is reported as 23%, the viability at 10 µM [3] is reported as 85.5% and the inhibition in vivo at 50 mg/kg [7] is reported as 46%. For the same molecule, the viability at 10 µM [4] was 41.5%, the inhibition in vivo at 50 mg/kg [8] was 54% and the viability at 10 µM [5] was 55.3%. For the same molecule, the inhibition in vivo at 50 mg/kg [9] was 49%.
CC(=O)c1nc(C(=O)NCCc2c[nH]c3ccccc23)cs1 [BACILLAMIDE A] gave an inhibition in vivo at 50 mg/kg [6] of 58%, a viability at 10 µM [3] of 85.1% and an inhibition in vivo at 50 mg/kg [7] of 42%. The viability at 10 µM [4] was 105%, the inhibition in vivo at 50 mg/kg [8] was 56% and the viability at 10 µM [5] was 81.1%. It also gave an inhibition in vivo at 50 mg/kg [9] of 46%.
For Nc1nc(C(=O)NCCc2c[nH]c3ccccc23)cs1, the IC50 [1] was 3000 nM, the IC50 [2] was 5400 nM and the “fold change (FC)” value [10] was 4 - 5. The inhibition in vivo at 50 mg/kg [6] was 86%, the viability at 10 µM [3] was 42.3% and the inhibition in vivo at 50 mg/kg [7] was 82%. For the same molecule, the viability at 10 µM [4] was 24.8%, the inhibition in vivo at 50 mg/kg [8] was 74% and the viability at 10 µM [5] was 20.3%. It also gave an IC50 [11] of 3000 nM and an inhibition in vivo at 50 mg/kg [9] of 54%.
Work on Cc1ccc(-c2nc(C(=O)NCCc3c[nH]c4ccccc34)cs2)cc1 yielded an inhibition in vivo at 50 mg/kg [6] of 81%, a viability at 10 µM [3] of 88.3% and an inhibition in vivo at 50 mg/kg [7] of 70%. The viability at 10 µM [4] was 87.3%, the inhibition in vivo at 50 mg/kg [8] was 77% and the viability at 10 µM [5] was 108%. It also gave an inhibition in vivo at 50 mg/kg [9] of 57%.
In the case of O=C(NCCc1c[nH]c2ccccc12)c1csc(-c2cccs2)n1, the inhibition in vivo at 50 mg/kg [6] is reported as 82%, the viability at 10 µM [3] is reported as 87.7% and the inhibition in vivo at 50 mg/kg [7] is reported as 62%. The viability at 10 µM [4] was 85.4%, the inhibition in vivo at 50 mg/kg [8] was 76% and the viability at 10 µM [5] was 93.9%. The inhibition in vivo at 50 mg/kg [9] was 58%.
With O=C(NCCc1c[nH]c2ccccc12)c1csc(-c2ccccc2)n1 the inhibition in vivo at 50 mg/kg [6] was 55%, the viability at 10 µM [3] was 87.3% and the inhibition in vivo at 50 mg/kg [7] was 57%. It also gave a viability at 10 µM [4] of 88.3%, an inhibition in vivo at 50 mg/kg [8] of 62% and a viability at 10 µM [5] of 97.6%. For the same molecule, the inhibition in vivo at 50 mg/kg [9] was 25%.
In the case of O=C(NCCc1c[nH]c2ccccc12)c1csc(Nc2ccccc2)n1, the IC50 [1] is reported as 600 nM, the IC50 [2] is reported as 100 nM and the “fold change (FC)” value [10] is reported as 4 - 5. For the same molecule, the inhibition in vivo at 50 mg/kg [6] was 77%, the viability at 10 µM [3] was 40.1% and the inhibition in vivo at 50 mg/kg [7] was 78%. The viability at 10 µM [4] was 20.1%, the inhibition in vivo at 50 mg/kg [8] was 73% and the viability at 10 µM [5] was 10.3%. For the same molecule, the IC50 [11] was 500 nM and the inhibition in vivo at 50 mg/kg [9] was 65%.

Reference: ChEMBL document CHEMBL3872221, “Solvent-free synthesis of bacillamide analogues as novel cytotoxic and anti-inflammatory agents” (Eur J Med Chem, 2016)
